This is an account of results in paper PMC9860313 (2022).

One may read the Kd as a measure of binding affinity in units of concentration. A word on the IC50: it is the concentration needed to halve the response being measured.

Molecules are shown by their SMILES.

The subject of assay [1] is stabilized aptamer (RNA, aptamer) GGCGAUACCAGCCGAAAGGCCCUUGGCAGCGCC
Kind of assay: X-ray crystallography. Particulars: 30 mM NaCl, 5 mM MgCl2, 5 mM HEPES pH 7.5, 0.4 mM RNA, 1 mM ligand.

In assay [2] the test system is aptamer-B (theophylline aptamer) (RNA, aptamer, 3'-terminal (A)10 spacer is DNA (positions 34-43)) GGCGAUACCAGCCGAAAGGCCCUUGGCAGCGUC
The assay is described as follows: surface plasmon resonance. Particulars: 150 mM NaCl, 5 mM MgCl2; 10 mM HEPES pH 7.4, 0.01-0.1% DMSO, 25°C. For orientation: SPR reads the build-up and loss of mass on a sensor chip optically.

The subject of assay [3] is aptamer-F (theophylline aptamer) (RNA, aptamer) GGCGAUACCAGCCGAAAGGCCCUUGGCAGCGUC
Kind of assay: fluorescence strand invasion assay. The note with it: 10 mM NaCl, 5 mM MgCl2; 20 mM HEPES pH 7.5, 0.01% Tween-20; 37°C; inhibits invasion by BBQ-650 2'-F quencher strand (Q-invader); apparent.

In assay [4] the test system is pentaloop aptamer (RNA, aptamer) GGCGAUACCAGCGAAACACGCCCUUGGCAGCGUC
Kind of assay: X-ray crystallography, soaked crystal. The note with it: 30 mM KCl, 10 mM MgCl2 (RNA refolding); Fab-RNA crystals soaked in 1.1 mM TAL2, 1 h; ligand not precisely placed.

For assay [5], the system named is mutant aptamer-B (U24C) (RNA, aptamer, 3'-terminal (A)10 spacer is DNA (positions 34-43)) GGCGAUACCAGCCGAAAGGCCCUCGGCAGCGUC
Kind of assay: surface plasmon resonance. The note with it: 150 mM NaCl, 5 mM MgCl2; 10 mM HEPES pH 7.4, 0.01-0.1% DMSO, 25°C; highest concentration 0.1-2.0 µM.

Setting [6] is: crystals from cacodylate pH 6.5, PEG 8K, MPD.

Turning to `COc1cc2c(O)ncnc2cc1OCC1CCN(C)CC1`, the binding entry in assay [1] (setting [6]) is “yes”. The Kd in assay [2] was 23 nM. Moreover, the IC50 in assay [3] stood at 1160 nM.
`COc1cc2ncnc(N3CCN(CCCCO)CC3)c2cc1OC`: the binding result in assay [1] (setting [6]) is on record as “yes”. In addition, the Kd in assay [2] stood at 280 nM. Besides, the IC50 in assay [3] was 1920 nM.
Consider `Cn1c(=O)cnc2c(N)nc(=O)[nH]c21`, for which, in assay [1] (0.2 M Ca(OAc)2 in reservoir, crystals from PEG 3350, 20°C), the binding result is “yes”. Further, the dissociation constant Kd in assay [2] worked out at 2 nM. Further, in assay [3], the IC50 came out at 460 nM.
For `COc1cc2c(O)ncnc2cc1OCCCN1CCCCC1`, the binding result in assay [1] (setting [6]) and in assay [4] was “yes” each time. Also, the Kd in assay [2] came to 9.1 nM. In assay [3], the IC50 was 700 nM.
For the molecule `Cn1c(=O)c2[nH]cnc2n(C)c1=O`, the binding result in assay [1] (setting [6]) is given as “yes”; in assay [5] it was “no”. Moreover, the Kd in assay [2] stood at 670 nM. The IC50 in assay [3] came out at 1990 nM.
